# Measurements: patent US20040024043A1, “Method for treating cognitive disorders” (priority 2002, published 2004)
# Entries after “also recorded” stand apart in the source; their conditions may differ.
# Assays:
# [1] = Randomized, double-blind, placebo-controlled 12-week efficacy study (NPI, CGIC, ADAS-cog, MMSE, CANTAB, ADCS-ADL); type: in vivo, patients; conditions: 50 mg BID 2 weeks then 100 mg BID 10 weeks
# From the text: A randomized, double-blind, placebo-controlled study is done to measure the efficacy of the (+) phenserine tartrate or formation as in Example 6 in given daily over twelve (12) weeks, in 60 patients diagnosed as having symptoms similar to those caused by Alzheimer's disease (PAD). In this study there was a total of 60 eligible patients with PAD whose primary language is English, and the patients constituted male and female patients between the ages of 50 and 85 years.
# Forty patients will receive two weeks of PT and a 50 mg BID dose level, at which time their dose will be escalated to 100 mg BID, where it will remain for the final ten (10) weeks. Concurrently, twenty patients assigned to placebo medication receive matched placebo capsules for the entire 12 week duration of the study. A sufficient number of potential patients are screened to ensure enrollment of 60 eligible cases.
# All study participants were evaluated prior to the study (First Level) and periodically throughout using the following standard efficacy tests;
# NPI (Neuropsychiatric Inventory,
# CGIC (Clinician's Global Impression of Change)
# ADAS-cog (Alzheimer's Disease Assessment Scale—cognitive subscale)
# MMSE (Mini-Mental State Exam)
# CANTAB (Cambridge Neuropsychological Test Automated Battery—
# ADCS-ADL (Activities of Daily Living)
# acetylcholinesterase [2] = biological target: T1, acetylcholinesterase (Homo sapiens, UniProt P22303); conditions: as stated in Shaw et al., PNAS 2001; read-out: concentration of compound required to inhibit 50% acetylcholinesterase activity; cited from earlier work
# Target sequence in this assay (P22303 32-614, species assumed): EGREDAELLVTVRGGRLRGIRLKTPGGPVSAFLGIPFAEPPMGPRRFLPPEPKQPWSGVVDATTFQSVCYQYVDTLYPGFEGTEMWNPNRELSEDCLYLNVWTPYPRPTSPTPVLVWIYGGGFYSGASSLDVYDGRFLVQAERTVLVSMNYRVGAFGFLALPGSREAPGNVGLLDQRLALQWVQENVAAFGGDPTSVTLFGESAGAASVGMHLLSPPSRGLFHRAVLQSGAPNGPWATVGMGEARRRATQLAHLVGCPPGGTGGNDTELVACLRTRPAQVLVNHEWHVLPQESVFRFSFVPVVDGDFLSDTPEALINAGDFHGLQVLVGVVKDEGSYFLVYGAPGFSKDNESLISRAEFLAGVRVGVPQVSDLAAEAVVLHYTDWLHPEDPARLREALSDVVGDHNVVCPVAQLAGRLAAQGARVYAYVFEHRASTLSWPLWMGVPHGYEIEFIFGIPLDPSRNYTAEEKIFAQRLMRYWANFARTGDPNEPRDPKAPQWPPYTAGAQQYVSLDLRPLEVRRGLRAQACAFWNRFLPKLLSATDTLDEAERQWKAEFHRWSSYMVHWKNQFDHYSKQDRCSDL
# acetylcholinesterase [3] = biological target: T1, acetylcholinesterase; conditions: compared with negative enantiomer phenserine; Pei, Greig et al. 1995; cited from earlier work
# Target sequence in this assay (P22303 32-614): as the sequence (P22303 32-614, species assumed) above
# [4] = system: Aβ protein levels in SK-N-SH cells; assay: Total Aβ assay (ELISA) in neuroblastoma cell cultures; type: cell-based; conditions: especially after 10 hours
# Protocol: (§1) The (+) enantiomer of formula I prepared in Example 2 was tested against its phenserine with respect to controlling β-APP levels in and the resulting toxic amyloid protein (Aβ protein) derived from the β-APP-protein by the procedure disclosed in the Shaw et al. Proc. Nat. Acad. Sci. USA (2001), 98 (13), 7605-7610. Pages […] except that the test given below included (+) enantiomer of phenserine as well as phenserine itself so that phenserine and its (+) enantiomer were tested side by side for their effect in reducing the β-APP and Aβ-proteins. The methodology of Shaw et al for carrying out these tests is summarized as follows:
# (§2) Drug treatment: SK-N-SH neuroblastoma cells were cultured on 60 mm dishes at a concentration of 3×10^6 cells, and SH-SY-5Y neuroblastoma cells were plated in 100 mm dishes at a concentration of 3×10^5 cells. The cells were allowed to grow in complete media (10% FBS, 2 mM glutamine in DMEM) for 3 to 4 days until they reached 70% confluence. To start the experiment, spent media were removed and replaced with fresh media (DMEM+0.5% FBS) containing 0, 5 or 50 μM of either (−)- or (+)-phenserine, and cells were incubated at 37 C, 5% CO2 for the specific times indicated.
# Total Aβ Assay: Total Aβ peptide levels in SH-SY-5Y and SK-N-SH cultured samples were assayed by a sensitive ELISA (Suzuki et al., 1994). For total Aβ measurements, the a sandwich immunoassay with rabbit polyclonal antibody to residues 1-40 residues of Aβ as a capture antibody for all species of Aβ peptide Aβ1-40 and Aβ1-42 and the monoclonal antibody to 17-25 residues of Aβ was used to detect Aβ peptide levels, and the values were expressed as the mean of six independent assays.
# [5] = In vivo studies: cholinergic side effects after i.p. administration; conditions: rodents
# Protocol: This is a classical central (i.e., brain) cholinergic over-stimulation (overdrive) effect. Such a tremor persisted for approximately 1 hour.
# [6] = system: βAPP levels in SK-N-SH cells; assay: βAPP levels by Western blot in neuroblastoma cells; type: cell-based; conditions: 0.5 μM to 50 μM, various time intervals up to 16 hours
# Protocol: as §1, §2
# Lysate preparation: At each time point, the spent medium was collected and stored at −70 C for later analysis of secretory βAPP levels. Cell lysates were prepared as reported previously (Lahiri et al., 1997 and 1998). Protein levels of the supernatant were analyzed by the Bradford protein assay (BioRad, Mellville, N.Y.).
# Western Blot: Fifteen μg of protein from each sample was laded onto a 10% NuPAGE Bis-Tris gel in 1× NuPAGE MOPS SDS running buffer (NOVEX, San Diego, Calif.) and the proteins separated at 200 V for 45 min. The gels then were transferred onto nitrocellulose at 25 V for 1.5 h. […] Equivalent loading of samples was determined by Ponceau S staining (Sigma, St. Louis, Mo.). Densimetric quantification of the chemiluminesence of blots was undertaken by using a […] and NIH-IMAGE (version 4.1).
Structure (SMILES),"level in the efficacy tests at end of twelve weeks versus First Level prior to treatment ([1]; patients with symptoms similar to Alzheimer's disease, oral capsules)",patients with an improvement over First Level at end of twelve-week period ([1]; treated group),IC50 (acetylcholinesterase [2]) [µM],activity as an inhibitor of human acetylcholinesterase (acetylcholinesterase [3]),levels of Aβ protein compared to control ([4]; FIGS. 2 and 3),"levels of Aβ protein compared to control ([4]; FIGS. 2 and 3, listed as positive isomer of phenserine)",symptoms observed ([5]; 20 mg/kg),βAPP levels compared to control ([6]; FIGS. 1 and 3),"βAPP levels compared to control ([6]; FIGS. 1 and 3, listed as positive isomer of phenserine)",persistence of tremor ([5]; 5 mg/kg),symptoms observed ([5]; 5 mg/kg (1 ml/kg in isotonic saline)),symptoms observed ([5]; 7.5 mg/kg),"animals killed when moribund, of 5 treated animals ([5]; 20 mg/kg)"
"CN1CC[C@]2(C)c3cc(OC(=O)Nc4ccccc4)ccc3N(C)[C@H]12.O=C(O)C(O)C(O)C(=O)O (single isomer, unassigned) [(+) phenserine tartrate, tartaric acid salt of the +enantiomer of N-phenyl carbanoyl eseroline]",maintain a level at least as great as the First Level,about 30%,–,–,–,–,–,–,–,–,–,–,–
"CN1CC[C@]2(C)c3cc(OC(=O)Nc4ccccc4)ccc3N(C)C12 (single isomer, unassigned; (+)) [(+)-phenserine, (+) 9-N-phenylcarbinol esroline]",–,–,> 25,far less active,effective in reducing,reduces the production,entirely without symptoms,effective in reducing,reduces the production,–,–,–,–
"CN1CC[C@@]2(C)c3cc(OC(=O)Nc4ccccc4)ccc3N(C)C12 (single isomer, unassigned; (-)) [(−)-phenserine, (−) N-(−)-N phenyl canbamoyleseroline]",–,–,–,–,reduced Aβ protein levels; also recorded: substantially reduced,–,incapacitated by severe tremor and peripheral side effects,reduces secreted and cellular βAPP levels in a concentration dependent manner; also recorded: decreased the βAPP levels,–,approximately 1 hour,fine tremor,"Tremor, together with symptoms of peripheral over-stimulation (specifically, lacrimation and salivation)",2
